Laboratory results published in publication PMC9774438, “Effects of Synthetic Short Cationic Antimicrobial Peptides on the Catalytic Activity of Myeloperoxidase, Reducing Its Oxidative Capacity” (Antioxidants, 2022).
“Also recorded” adds a separate entry of the source.

What was measured:
myeloperoxidase (MPO) [1] = target: T1, myeloperoxidase (MPO) (Homo sapiens, UniProt P05164); test: MPO heme absorbance spectra (Compound II formation and decay, MPO turnover); type: biochemical; details: 100 μM H2O2, 10 mM Na-phosphate pH 7.4
T1 construct: Native myeloperoxidase (MPO) was obtained from human leukocyte extract by successive chromatography on heparin-Sepharose and phenyl-agarose; from tissue; host or cells: human leukocyte extract
T1 sequence (P05164 279-745 limits assumed): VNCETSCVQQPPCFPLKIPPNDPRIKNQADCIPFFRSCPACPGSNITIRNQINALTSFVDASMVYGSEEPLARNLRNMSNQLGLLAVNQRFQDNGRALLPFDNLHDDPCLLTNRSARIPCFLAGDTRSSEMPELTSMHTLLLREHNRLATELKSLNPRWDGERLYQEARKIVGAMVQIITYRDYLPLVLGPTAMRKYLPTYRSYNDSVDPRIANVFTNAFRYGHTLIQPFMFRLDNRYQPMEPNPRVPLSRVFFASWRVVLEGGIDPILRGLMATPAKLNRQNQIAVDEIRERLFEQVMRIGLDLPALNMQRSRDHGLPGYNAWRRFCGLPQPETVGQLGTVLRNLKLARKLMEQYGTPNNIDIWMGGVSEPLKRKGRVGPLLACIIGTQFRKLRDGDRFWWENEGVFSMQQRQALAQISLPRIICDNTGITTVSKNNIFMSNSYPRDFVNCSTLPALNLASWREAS
T1 sequence (P05164 165-273 limits assumed): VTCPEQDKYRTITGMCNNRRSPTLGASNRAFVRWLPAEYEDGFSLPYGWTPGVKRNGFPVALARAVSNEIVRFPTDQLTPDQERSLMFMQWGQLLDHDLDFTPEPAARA
Protocol: Native myeloperoxidase (MPO) was obtained from human leukocyte extract by successive chromatography on heparin-Sepharose and phenyl-agarose followed by gel-filtration on a Sephacryl S-200 HR, as previously described. The Reinheit Zahl value (A430 nm/A280 nm) for the purified protein was 0.85. The MPO concentration was determined as the heme concentration measured spectrophotometrically at 430 nm with a molar extinction coefficient of 91,000 M^−1 cm^−1 [35].
Spectra of MPO were recorded on a Cary 50 Bio UV-Vis spectrophotometer (Varian, Mulgrave, Australia). Experiments were performed with Eppendorf UVette plastic UV/Vis cuvettes (Hamburg, Germany). An MPO concentration was 2 μM heme. MPO was mixed with CAMP in 10 mM Na-phosphate buffer (pH 7.4) supplemented with 0.2 mM DTPA. H2O2 was added as a microvolume of concentrated solution (100 μM final).
To elucidate the influence of CAMPs on MPO catalytic activity, we analyzed absorbance spectral changes for MPO activated by H2O2 in the presence of peptides. The spectra were obtained with 2 μM MPO heme and 100 μM H2O2 in 10 mM Na-phosphate buffer, pH 7.4. All reactions in these and further experiments were performed in buffers supplemented with 0.2 mM diethylenetriaminepentaacetic acid (DTPA) to sequester free transition metal ions to prevent tyrosine and cysteine autooxidation.
Figure 2 Time courses of spectral absorbance changes at 430 nm (indicative of MPO ground state) and 455 nm (indicative of Compound II) in the absence and presence of cationic antimicrobial peptides (CAMPs) in the system MPO/H2O2. The name of CAMP is given in parentheses after the panel designation (A–D). H2O2 (100 µM) was added to MPO (2 µM heme) or MPO preincubated with peptides at different peptide/heme molar ratios for 5 min in 10 mM Na-phosphate buffer, pH 7.4. Spectra were taken before and 0.25 min, 5 min, 10 min, and so on after adding H2O2. The initial absorbance values (before H2O2 addition) are shown as a red square marker. […]

myeloperoxidase (MPO) [2] = target: T1, myeloperoxidase (MPO); test: MPO chlorinating activity (Celestine Blue B assay); type: biochemical; details: 0.008–8 μM peptide, 0.8 nM MPO heme, 200 μM CB, 150 mM NaCl, 50 μM H2O2, 50 mM Na-acetate pH 5.5
Protocol: MPO chlorinating activity was evaluated fluorometrically using Celestine Blue B (CB) which was oxidized to fluorescent glycol (λex = 487 nm, λem = 578 nm) by taurine N-chloramine produced in the reaction of taurine with HOCl generated by MPO [39]. The assay was performed in 96-plate format. MPO was preincubated with peptides for 5 min in a volume of 100 μL, with the concentrations being: MPO, 1.6 nM heme and peptide, 16 nM–16 μM. Then, 100 μL aliquots of CB-containing mix (CB, 400 µM; H2O2, 100 µM; taurine, 4 mM; KI, 10 µM; NaCl, 300 mM; 50 mM Na-acetate buffer, pH 5.5) were added to MPO/peptide and to 100 μL of HOCl standards (0–150 μM). The fluorescence measurement was made with a CLARIOstar multimodal plate reader (BMG Labtech, Ortenberg, Germany) at 15 min after the reaction started. Fluorescence intensity detected for HOCl standards of HOCl was used for calculating the chlorinating activity as mole of HOCl per mole of MPO heme per second. To determine the type of CAMP-induced inhibition, KM and Vmax were obtained by varying substrates of MPO: NaCl in a final concentration from 25 to 300 mM, or H2O2 in a final concentration from 5 to 80 µM.
The Hannes-Wolf plots were made as ([Substrate]/V = f([Substrate]). KM was equal in magnitude to the intercept made on the abscissa axis by the approximating straight line; Vmax was calculated as a reciprocal value of the straight-line slope. The inhibition constant (Ki) for noncompetitive inhibition was calculated as follows: Ki = [I]/((Vmax − Vmax’)/Vmax’); Ki for competitive inhibition was calculated as follows: Ki = [I]/((KM’ − KM)/KM); Ki for mixed inhibition was calculated as follows: Ki = [I]/(((KM’ − KM)/KM)^2 + ((Vmax − Vmax’)/Vmax’))^2)^0.5; and Ki for uncompetitive inhibition was calculated as follows: Ki = [I]/(((KM − KM’)/KM’)^2 + ((Vmax – Vmax’)/Vmax’))^2)^0.5, where [I]—concentration of inhibitor (CAMP), KM—Michaelis constant without inhibitor, Vmax—maximal rate without inhibitor, KM’—Michaelis constant in the presence of inhibitor, Vmax’—maximal rate in the presence of inhibitor.
Chlorinating activity is a distinctive feature of MPO as compared with other peroxidases and it is an important property, enabling MPO to combat microbes. We tested whether the inhibitory effects of pept_1545 and Hm-AMP8 on peroxidase activity extend to MPO chlorinating activity. Chlorinating activity was measured using a fluorometric CB-based assay. To determine the concentration dependence of the effect of CAMPs on MPO chlorinating activity, the 0.008–8 μM concentration range (corresponding to 10–10,000 peptide molecules per heme) was used.

[3] = 10 mM Na-phosphate pH 7.4; limits peptide/heme ratio to 45:1

For EKRWRRLIFNYF [Hm-AMP2], the “effect on H2O2-induced formation and decay of MPO Compound II / MPO turnover (summary)” value (myeloperoxidase (MPO) [1]; 2 μM MPO heme, all concentrations) was “accelerated MPO turnover; also recorded: Acceleration of CII reduction to native MPO”, the “effect on Compound II decay to native MPO” value (myeloperoxidase (MPO) [1]; peptide/heme molar ratio up to 45:1, 2 μM MPO heme) was “accelerated Compound II decay to native MPO, with the effect being greater at a higher peptide/heme molar ratio” and the “effect on MPO chlorinating activity” value (myeloperoxidase (MPO) [2]) was “no significant effect”. For the same sequence, the “solubility in phosphate buffer” value [3] was “poor solubility”.
